Patent US6693123B2 (University of Pittsburgh, priority 1995, dated 2004)
Counter-ions that a name gives are not always drawn.

These compounds were tested against T1, Rat brain protein farnesyltransferase (Rattus norvegicus, UniProt Q02293+Q04631) (assay: In vitro inhibition of protein farnesyltransferase, Amersham scintillation proximity assay with biotin-K Ras B fragment). Conditions: Inhibition of farnesyltransferase; compound at 1 × 10^−5 M (Table 1).
T1 construct: The enzyme is purified according to Reiss, Y., et al., Cell, 62: 81-88 (1990), utilizing steps one through three; from tissue; host or cells: rat brain
Assay type: biochemical
In the case of `CC(C)C[C@H](NC(=O)c1ccc(NCc2cccnc2)cc1-c1ccccc1)C(=O)O` [Example 390, 5-[N-(3-Pyridinyl)methylamino-2-phenylbenzoyl]leucine], the inhibition at 10 µM was over 50%.
`CSCC[C@H](NC(=O)c1ccc(NCc2nc[nH]c2C)cc1-c1ccccc1)C(=O)O` [Example 383, 4-[N-(5-Methyl-1-H-imidazole-4-yl)-methylene-(amino-2-phenylbenzol)]methionine] was tested, and the inhibition at 10 µM was over 50%.
With `CC(C)C[C@H](NC(=O)c1ccc(NCc2cnc[nH]2)cc1-c1cccc2ccccc12)C(=O)O` [Example 388, 4-[N-(1H-Imidazol-4-yl)methylamino-2-(1-naphthyl)benzoyl]leucine] the inhibition at 10 µM was over 50%.

Same assay, conditions: Inhibition of farnesyltransferase; compound at 1 × 10^−6 M (Table 2)
For `CCNC(=O)CC[C@H](NC(=O)c1ccc(COc2cccnc2)cc1-c1ccccc1C)C(=O)O` [Example 315, (S)-2-N-[4-(3-Pyridyloxymethyl)-2-(2-methylphenyl)benzoyl]amino-4-(N-ethylaminocarbonyl)butanoic Acid], the “% inhibition at 1 × 10^−6 M” value was 93%.
`CSCC[C@H](NC(=O)c1ccc(NC(=O)c2cnccc2C(F)(F)F)cc1-c1ccccc1C)C(=O)[O-].[Li+]` [Example 481, N-[4-N-(4-Trifluoromethylnicotinoyl)amino-2-(2-methylphenyl)benzoyl]methionine Lithium Salt] was tested, and the “% inhibition at 1 × 10^−6 M” value was 95%.
For “N-[4-(3-Imidazol-1-ylprolpylaminosulfonyl)-2-phenylbenzoyl]methionine Lithium Salt [Example 777]”, the “% inhibition at 1 × 10^−6 M” value was 83%.
In the case of “[4-(3-Pyridyloxymethyl)-2-(2-ethylphenyl)benzoyl]methionine Methyl Ester [Example 306]”, the “% inhibition at 1 × 10^−6 M” value was 99%.
In the case of `CSCC[C@H](NC(=O)c1ccc(CN(C(=O)c2ccccc2)c2cccnc2)cc1-c1ccccc1C)C(=O)O` [Example 569, N-[4-N-Benzoyl-N-pyrid-3-ylaminomethyl-2-(2-methylphenyl)benzoyl]methionine], the “% inhibition at 1 × 10^−6 M” value was 91%.

Same assay, conditions: Inhibition of farnesyltransferase; compound at 1 × 10^−6 M (Table 2); read-out: % inhibition at 1 × 10^−6 M
With `CSCC[C@H](NC(=O)c1ccc(NC(=O)c2c[nH]cn2)cc1-c1ccccc1)C(=O)O` [Example 168, [4-(1H-Imidazol-4-ylcarbonyl)amino-2-phenylbenzoyl]methionine Hydrochloride] the inhibition at 1 µM was 92%.
With `CSCC[C@H](NC(=O)c1ccc(/C=C/c2cccnc2)cc1-c1ccccc1C)C(N)=O` [Example 796, N-[4-(2-Pyrid-3-ylethen-1-yl)-2-(2-methylphenyl)benzoyl]methioninamide] the inhibition at 1 µM was 35%.
`CSCC[C@H](NC(=O)c1cc(-c2cccs2)c(COc2cccnc2)cc1-c1ccccc1C)C(=O)O` [Example 346] gave an inhibition at 1 µM of 98%.
In the case of `CSCC[C@H](NC(=O)c1ccc(COc2cccnc2)cc1-c1ccccc1C)C(=O)O` [Example 204, [4-(3-Pyridyloxymethyl)-2-(2-methylphenyl)benzoyl]methionine], the inhibition at 1 µM was 98%.
In the case of `COC(=O)[C@H](CCSC)NC(=O)c1ccc(CNc2cccnc2)cc1-c1ccccc1` [Example 226, [4-(Pyrid-3-ylaminomethyl)-2-phenylbenzoyl]methionine Methyl Ester Hydrochloride], the inhibition at 1 µM was 23%.
For `O=C(N[C@H]1CCOC1=O)c1ccc(NCc2cccnc2)cc1-c1ccccc1` [Example 190, [4-(3-Pyridylmethylamino)-2-phenylbenzoyl]homoserine Lactone], the inhibition at 1 µM was 4%.
Compound `CSCC[C@H](NC(=O)c1ccc(COc2cccnc2)cc1-c1ccccc1C)C(=O)NS(=O)(=O)c1ccccc1` [Example 253, [4-(3-Pyridyloxymethyl)-2-(2-methylphenyl)benzoyl]methionine Phenylsulfonimide] has an inhibition at 1 µM of 99%.
`CCCC[C@H](NC(=O)c1ccc(COc2cccnc2)cc1-c1ccccc1)C(=O)O` [Example 244, N-[4-(3-Pyridyloxymethyl)-2-phenylbenzoyl]norleucine] was tested, and the inhibition at 1 µM was 21%.
`CSCC[C@H](NC(=O)c1ccc(OCc2cccnc2)cc1-c1ccccc1)C(=O)O` [Example 240, [4-(3-Pyridylmethyloxy)-2-phenylbenzoyl-]methionine] was tested, and the inhibition at 1 µM was 98%.
`CCc1cc(C(=O)N[C@@H](CCSC)C(=O)O)c(-c2ccccc2C)cc1COc1cccnc1` [Example 918, N-[5-Ethyl-4-(pyrid-3-yloxymethyl)-2-(2-methylphenyl)benzoyl]methionine] gave an inhibition at 1 µM of 97%.
For `CSCC[C@H](NC(=O)c1ccc(CCc2c[nH]cn2)cc1-c1ccccc1)C(=O)O` [Example 329, {4-[2-(1H-Imidazol-4-yl)ethyl]-2-phenylbenzoyl}methionine], the inhibition at 1 µM was 98%.
In the case of `CSCCCNC(=O)c1ccc(CN(Cc2ccccc2)c2cccnc2)cc1-c1ccccc1C` [Example 926, 3-Methylthiopropyl N-4-(N-Pyrid-3-yl-N-benzylaminomethyl)-2-(2-methylphenyl)benzamide], the inhibition at 1 µM was 69%.
Work on `CSCC[C@H](NC(=O)c1ccc(CNCc2c[nH]cn2)cc1-c1ccccc1)C(=O)O` [Example 225, [4-(1H-Imidazol-4-ylmethylaminomethyl)-2-phenylbenzoyl]methionine] yielded an inhibition at 1 µM of 93%.
With `CSCC[C@H](NC(=O)c1ccc(NC(=O)c2cccnc2)cc1-c1ccccc1C)C(=O)O` [Example 301, [4-(3-Pyridylcarbonylamino)-2-(2-methylphenyl)benzoyl]methionine] the inhibition at 1 µM was 98%.
Work on `COc1ccncc1NCc1ccc(C(=O)N[C@@H](CCSC)C(=O)O)c(-c2ccccc2)c1` [Example 281, [4-(4-Methoxypyrid-3-ylaminomethyl)-2-phenylbenzoyl]methionine Sodium Salt] yielded an inhibition at 1 µM of 98%.
`CSCC[C@H](NC(=O)c1ccc(CNC(=O)c2cn(C)cn2)cc1-c1ccccc1)C(=O)O` [Example 332, [4-(1H-1-Methylimidazol-4-ylcarbonylaminomethyl)-2-phenylbenzoyl]methionine] gave an inhibition at 1 µM of 26%.

Same assay, conditions: Inhibition of farnesyltransferase; compound at 1 × 10^−7 M (Table 3); read-out: % inhibition at 1 × 10^−7 M
With `CSCC[C@H](NC(=O)c1ccc(CN(c2cccnc2)S(=O)(=O)c2ccccc2)cc1-c1ccccc1C)C(=O)O` [Example 570, N-[4-N-Phenylsulfonyl-N-pyrid-3-ylaminomethyl-2-(2-methylphenyl)benzoyl]methionine] the inhibition at 0.1 µM was 92%.
`CSCC[C@H](NC(=O)c1ccc(CCc2cccnc2)cc1-c1ccccc1C)/C(=N/O)NO` [Example 815, N-[4-(2-Pyrid-3-yleth-1-yl)-2-(2-methylphenyl)benzoyl]methionine N,N-Dihydroxyamidine] was tested, and the inhibition at 0.1 µM was 71%.
`CSCCC(OC(=O)c1ccc(/C=C/c2cccnc2)cc1-c1ccccc1C)C(=O)O` (stereo not drawn) [Example 814, 2-[4-(2-Pyrid-3-ylethen-1-yl)-2-(2-methylphenyl)benzoyl]oxy-4-methylthiobutanoic Acid] gave an inhibition at 0.1 µM of 81%.

Same assay, conditions: Inhibition of farnesyltransferase; compound at 1 × 10^−8 M (Table 4); read-out: % inhibition at 1 × 10^−8 M
For `CSCC[C@H](NC(=O)c1ccc(CN(Cc2ccccc2)c2cccnc2)cc1-c1ccc(F)cc1Cl)C(=O)O` [Example 873, N-(4-(N-Benzyl-N-pyrid-3-ylaminomethyl)-2-(2-chloro-4-fluorophynel)beonzoyl)methionine], the inhibition at 0.01 µM was 97%.
In the case of `CSCC[C@H](NC(=O)c1ccc(COc2cccnc2)cc1-c1ccc(F)cc1Cl)C(=O)O` [Example 871, N-[4-(Pyrid-3-yloxymethyl)-2-(2-chloro-4-fluorophenyl)benzoyl]methionine], the inhibition at 0.01 µM was 94%.
Compound `CSCC[C@H](NC(=O)c1cc(CCc2ccccc2)c(COc2cccnc2)cc1-c1ccccc1C)C(=O)O` [Example 922, N-[5-(2-Phenylethyl)-4-(pyrid-3-yloxymethyl)-2-(2-methylphenyl)benzoyl]methionine] has an inhibition at 0.01 µM of 96%.
`CSCC[C@H](NC(=O)c1cc(Cc2ccccc2)c(CN(Cc2ccccc2)c2cccnc2)cc1-c1ccccc1C)C(=O)O` [Example 920, N-[5-Benzyl-4-(N-pyrid-3-yl-N-benzylaminomethyl)-2-(2-metbylphenyl)benzoyl]methionine] was tested, and the inhibition at 0.01 µM was 96%.
Compound `CSCC[C@@H](NC(=O)c1ccc(CNc2cccnc2)cc1-c1ccccc1C)C(=O)O` (stereo in doubt) [Example 400, [4-(3-Pyridylaminomethyl)-2-(2-methylphenyl)benzoyl]methionine] has an inhibition at 0.01 µM of 98%.

Same assay, conditions: read-out: % inhibition at 0.01 μM
`CSCC[C@H](NC(=O)c1ccc(CN(Cc2cccnc2)c2cc(F)cc(F)c2)cc1-c1ccccc1C)C(=O)O` [Example 1287, N-[4-N-(N-3,5-Difluorophenyl-N-(3-pyridylmethyl)aminomethyl)-2-(2-methylphenyl)benzoyl]methionine Lithium Salt] showed an inhibition at 0.01 µM of 95%.

Same assay, conditions: read-out: % inhibition at 1 × 10^−6 M
Compound `CSCC[C@H](NC(=O)c1ccc(/C=C/n2ccnc2)cc1-c1ccccc1)C(=O)O` [Example 217, {4-[2-(1-H-Imidazole-1-yl)ethenyl]-2-phenylbenzoyl}methionine Sodium Salt] has an inhibition at 1 µM of 99%.
In the case of `CSCC[C@H](NC(=O)c1ccc(/C=C/n2ccnc2)cc1-c1ccccc1C)C(=O)O` [Example 278, {4-[2-(1H-1-Imidazolyl)ethenyl]-2-(2-methylphenyl)benzoyl}methionine Sodium Salt], the inhibition at 1 µM was 99%.
`CSCC[C@H](NC(=O)c1ccc(CCn2ccnc2)cc1-c1ccccc1C)C(=O)O` [Example 279, {4-[2-(1H-1-Imidazolyl)ethyl]-2-(2-methylphenyl)benzoyl}methionine Sodium Salt] gave an inhibition at 1 µM of 99%.
`CSCC[C@H](NC(=O)c1ccc(CNc2cnccc2C)cc1-c1ccccc1)C(=O)O` [Example 280] showed an inhibition at 1 µM of 98%.

Same assay, conditions: read-out: % inhibition at 1 × 10^−7 M
With `CSCC[C@H](NC(=O)c1ccc(/C=C/c2cnc3ccccc3c2)cc1-c1ccccc1C)C(=O)O` (stereo in doubt) [Example 487, N-[4-(2-Quinolin-3-ylethen-1-yl)-2-(2-methylphenyl)benzoyl]methionine Lithium Salt] the inhibition at 0.1 µM was 81%.
For `CSCC[C@H](NC(=O)c1ccc(COc2cccnc2)cc1-c1c(C)noc1C)C(=O)O` [Example 823], the inhibition at 0.1 µM was 75%.
